Data set [1] can be described thus: Cytotoxicity test (SRB), A549. The settings on record: human, A549 non-small cell lung cancer cells. Format: cell-based. How it is done:
(§1) Cytotoxicity of the compounds of the present invention was tested with human non-small cell lung cancer cells A549, human cervical cancer Hela cells, human skin cancer cells A431. The test was performed by referring to the method described by Rusnak et al (Rusnak D. W., et al., Cell Prolif., 2007, 40, 580-94).
(§2) In Dulbecco's Modified Eagle Medium (DMEM) comprising 10% fetal bovine serum, 2 mM glutamine and non-essential amino acids, cells were cultured at 37° C. in 5% CO2 cell incubator. Trypsin/ethylenediamine tetraacetic acid (EDTA) were used to harvest cells in cell culture bottle. The cells were added to a 96-well cell culture plate, 4000/well (0.1 ml medium), adhering wall overnight, 0.1 ml of the diluted solution of the compounds to be tested was added, the final concentration of DMSO was 0.25%. The cell culture plate was incubated at 37° C., 5% CO2 conditions for 72 h. The change of cellular morphology was observed under microscope, and then 50 μl of 50% (mass/volume) trichloroacetic acid (TCA) was added to each well to fix cells. The final concentration of TCA was 10%. It stood for 5 min, than was placed in 4° C. refrigerator for 1 h, the wells of the culture plate were washed with deionized water for 5 times to remove TCA, drained, dried in air until no wet trace was observed. 100 μl of 0.4% (mass/volume) SRB was added to each well, stood at room temperature for 10 min. The liquid in each well was discarded, and then the wells were washed with 1% acetic acid for 5 times, dried in air, extracted with 150 μl of 10 mM Tris base (trihydroxymethylaminomethane, pH 10.5). The absorption at a wavelength of 540 nm was measured. The IC50 (μM) of the compound was calculated using Logit method.

The nature of data set [2]: Cytotoxicity test (SRB), A431. Particulars: human, A431 skin cancer cells. Format: cell-based. How it is done:
as §1, §2

The subject of data set [3] is human colon cancer HT 29 transplanted tumor. The experiment in a line: Nude mice transplanted tumor test. Format: in vivo, female Balb/cA nude mice. The settings on record: for Dead animal number / inhibition in vivo at 80 mg/kg / d21 Wave ± SD (average bodyweight of nude mice) / d21 Vave ± SD (average tumor volume) / d21 RTV ± SD (relative tumor volume): 80 mg/kg intragastrically each day for 20 days; for Dead animal number: dead/total animals; for Activity of inhibiting HT-29 transplanted tumor in vivo (in words): 80 mg/kg, compared with positive control Sunitinib; for inhibition in vivo at 80 mg/kg: Mus musculus, HT-29, po, 504 h, (1−T/C)×100%, read-out: Tumor inhibition rate d21 (%); for inhibition in vivo at 80 mg/kg / d21 Wave ± SD (average bodyweight of nude mice) / d21 Vave ± SD (average tumor volume) / d21 RTV ± SD (relative tumor volume): d21; for d0 Wave ± SD (average bodyweight of nude mice): d0, at grouping before administration (baseline); for d21 Vave ± SD (average tumor volume): HT 29 in nude mice; for d21 RTV ± SD (relative tumor volume): RTV=Vt/V0. On the set-up: key to d21 Vave ± SD (average tumor volume): tumor volume TV = ½×a×b² (a, b = major, minor diameter), in mm³. How it is done: The nude mice transplanted tumor test used female Balb/cA nude mice, and tumor strains were human colon cancer HT 29 strains.
Under sterile condition, eugonic tumor tissues stage were cut into pieces of about 1.5 mm^3, and inoculated at right axillary fossa of the nude mice. The transplanted tumor diameter was measured by vernier caliper, and the animals were randomly grouped after the tumors grew to about 120 mm^3. The positive control group and the compounds group in a dosage of 80 mg/kg were administered intragastrically each day for consecutive 20 days. The negative control group was given equivalent amount of injection water containing 0.1% Tween 80. Tumor diameters and the bodyweight of mice were measured 2-3 times every week. The evaluation indexes observed in the test include relative tumor proliferation rate, bodyweight and general states. The formulation for calculating tumor volume (TV) is: TV=½×a×b^2, wherein a, b represent major diameter and minor diameter of tumor; Relative tumor volume (RTV) was calculated according the results of measurement by the following formula: RTV=Vt/V0, wherein V0 is tumor volume measured when dividing groups for administration, and Vt is tumor volume measured after each administration.

Data set [4] deals with arterial ring angiogenesis in rats. The experiment in a line: Inhibitory actions on arterial ring angiogenesis in rats. Format: cell-based. Particulars: Rattus norvegicus, area covered by micrangiums vs control well, read-out: Inhibitory rate (%); for inhibition at 0.2 µg/mL: 0.2 μg/ml; for inhibition at 1 µg/mL: 1 μg/ml; for inhibition at 5 µg/mL: 5 μg/ml. How it is done: This experiment was conducted by referring to the method described by R. F. Nicosia et al (Nicosia, R. F., et al. Am J Pathol., 1997, 151, 1379-1386). Rats were executed by cervical dislocation. The thoracic aorta was carefully separated, and placed in a container with physiological saline. The excess tissues were carefully cut off. The blood vessels were cut with a pair of ophthalmic scissors to form 1 mm thick vascular ring slices. To a pre-cooled 96-well cell culture plate, one separated vascular ring was placed in the center of each well. 70 μl of pre-molten Matrigel was carefully added to cover the vascular ring, which was incubated at 37° C. for 1 h so as to solidify it. […] The sample was placed in incubator for conventional culture, and each compound was tested at least in two repeated wells, and each test was repeated twice. […] The fresh culture medium was replaced every 3 days, and the drug was changed at the same time. The survival status of vascular rings was observed under microscope, and pictures were taken at the same time. Image Pro Plus software was used to calculate the area covered by micrangiums. The average inhibition rate was calculated by using the formula: inhibition rate (%)=(area of control well−area of drug well)/area of control well×100%.

Data set [5] is described as follows: Cytotoxicity test (SRB), Hela. In kind it is cell-based. Particulars: human, Hela cervical cancer cells. Here is the method:
Cytotoxicity of the compounds of the present invention was tested with human non-small cell lung cancer cells A549, human cervical cancer Hela cells, human skin cancer cells A431. The test was performed by referring to the method described by Rusnak et al (Rusnak D. W., et al., Cell Prolif., 2007, 40, 580-94). […] Trypsin/ethylenediamine tetraacetic acid (EDTA) were used to harvest cells in cell culture bottle. The cells were added to a 96-well cell culture plate, 4000/well (0.1 ml medium), adhering wall overnight, 0.1 ml of the diluted solution of the compounds to be tested was added, the final concentration of DMSO was 0.25%. The cell culture plate was incubated at 37° C., 5% CO2 conditions for 72 h. […] The absorption at a wavelength of 540 nm was measured. The IC50 (μM) of the compound was calculated using Logit method.

Molecules are shown by their SMILES. A value given as a limit tells only on which side of the number the result lay.

In data set [1], `CCN(CC)CCC(=O)Nc1c(C)[nH]c(/C=C2\C(=O)Nc3ccc(F)cc32)c1C` [Compound 1, N-{5-[5-fluoro-2-oxo-1,2-dihydro-indol-(3Z)-ylidenemethyl]-2,4-dimethyl-1H-pyrrol-3-yl}-3-(N,N-diethylamino)propionamide] returned an IC50 at 72 h of over 30 µM. The molecule further had an IC50 at 72 h in data set [2] of over 30 µM. In addition, in data set [3], the Dead animal number is 0/6, the “Activity of inhibiting HT-29 transplanted tumor in vivo (in words)” value is on record as “inhibitory activity comparable to the positive control Sunitinib”, the inhibition in vivo at 80 mg/kg came to 86.9% and the “d0 Wave ± SD (average bodyweight of nude mice)” value (from here on “d0 Wave ± SD”) is listed as 18.6 ± 1.20. In data set [3], the “d21 Wave ± SD (average bodyweight of nude mice)” value (“d21 Wave ± SD” for short) is 18.8 ± 2.97 and the “d21 RTV ± SD (relative tumor volume)” value turned out to be 0.94 ± 0.12. Further, the “d21 Vave ± SD (average tumor volume)” value in data set [3] (in mm³ (unit assumed)) turned out to be 102.8 ± 26.2. Besides, in data set [4], the inhibition at 0.2 µg/mL stood at 99%, the inhibition at 1 µg/mL is 100% and the inhibition at 5 µg/mL amounted to 100%. In data set [5], this molecule had a half-maximal inhibitory concentration (IC50) at 72 h of over 30 µM.
`CCN(CC)CCC(=O)Nc1c(C)[nH]c(/C=C2\C(=O)Nc3ccc(Cl)cc32)c1C` [Compound 2, N-{5-[5-chloro-2-oxo-1,2-dihydro-indol-(3Z)-ylidenemethyl]-2,4-dimethyl-1H-pyrrol-3-yl}-3-(N,N-diethylamino)propionamide] had an IC50 at 72 h in data set [1] of over 30 µM. In data set [2], this molecule yielded a half-maximal inhibitory concentration (IC50) at 72 h of over 30 µM. Besides, in data set [3], the Dead animal number is 0/6, the inhibition in vivo at 80 mg/kg was 63.8%, the “d0 Wave ± SD” value was found to be 18.8 ± 0.35 and the “d21 Wave ± SD” value came to 19.9 ± 0.68. In addition, in data set [3], the “d21 Vave ± SD (average tumor volume)” value amounted to 300.3 ± 36.8 and the “d21 RTV ± SD (relative tumor volume)” value is on record as 2.60 ± 0.52. In data set [4], the inhibition at 0.2 µg/mL worked out at 94%, the inhibition at 1 µg/mL was 100% and the inhibition at 5 µg/mL worked out at 100%. In addition, the IC50 at 72 h in data set [5] was over 30 µM.
As for `Cc1[nH]c(/C=C2\C(=O)Nc3ccc(F)cc32)c(C)c1NC(=O)/C=C/CN(C)C` [Compound 4, N-{5-[5-fluoro-2-oxo-1,2-dihydro-indol-(3Z)-ylidenemethyl]-2,4-dimethyl-1H-pyrrol-3-yl}-4-(N,N-dimethylamino)-(2E)-crotonamide], the IC50 at 72 h in data set [1] was over 30 µM. The half-maximal inhibitory concentration (IC50) at 72 h in data set [2] is over 30 µM. For the same molecule, in data set [3], the Dead animal number is recorded as 0/6, the “Activity of inhibiting HT-29 transplanted tumor in vivo (in words)” value is on record as “inhibitory activity comparable to the positive control Sunitinib”, the inhibition in vivo at 80 mg/kg worked out at 91% and the “d0 Wave ± SD” value stood at 19.6 ± 0.22. For the same molecule, in data set [3], the “d21 Wave ± SD” value came out at 19.6 ± 0.85 and the “d21 RTV ± SD (relative tumor volume)” value was determined as 0.65 ± 0.28. The “d21 Vave ± SD (average tumor volume)” value in data set [3] (in mm³ (unit assumed)) is reported as 80.0 ± 33.2. Also, in data set [4], the inhibition at 0.2 µg/mL is 98%, the inhibition at 1 µg/mL was determined as 100% and the inhibition at 5 µg/mL came to 100%. This molecule also registered a concentration for half-maximal inhibition (IC50) at 72 h in data set [5] of over 30 µM.
`Cc1[nH]c(/C=C2\C(=O)Nc3ccc(F)cc32)c(C)c1NC(=O)CCN1CCCC1` [Compound 14, N-{5-[5-fluoro-2-oxo-1,2-dihydro-indol-(3Z)-ylidenemethyl]-2,4-dimethyl-1H-pyrrol-3-yl}-3-(tetrahydropyrrol-1-yl)propionamide]: in data set [1], the IC50 at 72 h was over 30 µM. This molecule also had an IC50 at 72 h in data set [2] of over 30 µM. Besides, in data set [4], the inhibition at 0.2 µg/mL was 88%, the inhibition at 1 µg/mL came to 100% and the inhibition at 5 µg/mL was found to be 100%. In data set [5], this molecule gave an IC50 at 72 h of over 30 µM.
In the case of `Cc1[nH]c(/C=C2\C(=O)Nc3ccc(F)cc32)c(C)c1NC(=O)CN1CCN(C)CC1` [Compound 15, N-{5-[5-fluoro-2-oxo-1,2-dihydro-indol-(3Z)-ylidenemethyl]-2,4-dimethyl-1H-pyrrol-3-yl}-2-(4-methylpiperazin-1-yl)acetamide], the half-maximal inhibitory concentration (IC50) at 72 h in data set [1] was over 30 µM. The molecule also gave a half-maximal inhibitory concentration (IC50) at 72 h in data set [2] of over 30 µM. Further, in data set [4], the inhibition at 0.2 µg/mL was 89%, the inhibition at 1 µg/mL is 100% and the inhibition at 5 µg/mL stood at 100%. Also, the 50% inhibitory concentration (IC50) at 72 h in data set [5] is over 30 µM.
Consider `CCN(CC)CC(=O)Nc1c(C)[nH]c(/C=C2\C(=O)Nc3cc(OC)ccc32)c1C` [Compound 23, N-{5-[6-methoxy-2-oxo-1,2-dihydro-indol-(3Z)-ylidenemethyl]-2,4-dimethyl-1H-pyrrol-3-yl}-2-(N,N-diethylamino)acetamide], for which the half-maximal inhibitory concentration (IC50) at 72 h in data set [1], in data set [2] and in data set [5] was over 30 µM in each case. Further, the inhibition at 0.2 µg/mL in data set [4] was 90%. Besides, the inhibition at 1 µg/mL in data set [4] stood at 100%. In data set [4], the inhibition at 5 µg/mL stood at 100%.
`CCN(CC)CC(=O)Nc1c(C)[nH]c(/C=C2\C(=O)Nc3ccc(NS(C)(=O)=O)cc32)c1C` [Compound 25, N-{5-[5-methylsulfonylamino-2-oxo-1,2-dihydro-indol-(3Z)-ylidenemethyl]-2,4-dimethyl-1H-pyrrol-3-yl}-2-(N,N-diethylamino)acetamide]: the IC50 at 72 h in data set [1] is over 30 µM; in data set [2] it was 6.57 µM; in data set [5], over 30 µM. The inhibition at 0.2 µg/mL in data set [4] amounted to 89%. The inhibition at 1 µg/mL in data set [4] was found to be 100%. Besides, in data set [4], the inhibition at 5 µg/mL turned out to be 100%.
As for `CCN(CC)CC(=O)Nc1c(C)[nH]c(/C=C2\C(=O)Nc3cc(C)ccc32)c1C` [Compound 27, N-{5-[6-methyl-2-oxo-1,2-dihydro-indol-(3Z)-ylidenemethyl]-2,4-dimethyl-1H-pyrrol-3-yl}-2-(N,N-diethylamino)acetamide], the 50% inhibitory concentration (IC50) at 72 h in data set [1], in data set [2] and in data set [5] was over 30 µM each time. Besides, the inhibition at 0.2 µg/mL in data set [4] amounted to 78%. Also, the inhibition at 1 µg/mL in data set [4] worked out at 95%. In addition, the inhibition at 5 µg/mL in data set [4] came to 100%.

The record behind these values is patent US8637681B2, “Pyrrolyl substituted dihydroindol-2-one derivatives, preparation methods and uses thereof” (Qilu Pharmaceutical Co., Ltd., priority 2010, dated 2014).
